{"source": "ChEMBL document CHEMBL4145553", "about": "“Design, synthesis, and biological evaluation of novel amide and hydrazide based thioether analogs targeting Histone deacteylase (HDAC) enzymes” (Eur J Med Chem, 2018)", "key": {"[1]": {"test_system": "NCI-H522", "test": "Growth inhibition of human NCI-H522 cells assessed as cell growth at 10^-4 M incubated for 48 hrs by sulforhodamine B assay relative to control", "assay_type": "functional", "settings": "NCI-H522, 48 h, read-out: Activity"}, "[2]": {"test_system": "COLO 205", "test": "Growth inhibition of human COLO205 cells assessed as cell growth at 10^-5 M incubated for 48 hrs by sulforhodamine B assay relative to control", "assay_type": "functional", "settings": "COLO 205, 48 h, read-out: Activity"}}, "data": [{"compound": "CCS/C(Nc1ccccc1)=C(\\C#N)C(=O)Nc1ccc(OC)cc1", "values": [{"measurement": "growth at 100 µM", "setting": "[1]", "result": -11, "unit": "%"}, {"measurement": "growth at 10 µM", "setting": "[2]", "result": 1, "unit": "%"}]}]}
